Assays:
Assay type in all cases: in vivo
[1] = system: redroot pigweed (Amaranthus retroflexus, AMARE); assay: Pre-emerge test, greenhouse herbicide activity screening; settings: Amaranthus retroflexus, pre-emergence, 336 h, pre-emerge, phytotoxicity rating 0-100 at 14 days after application, read-out: Pre-emerge Herbicidal Activity AMARE; for pest or weed control at 63 g/ha: rate 63 g ai/ha; for pest or weed control at 250 g/ha: rate 250 g ai/ha
How it was run: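 Herbicidal damage is scored 0 (none) to 100 (complete plant death) two weeks after a simulated field spray. Rates span 15–1000 g ai/ha, delivered in acetone at 187 l/ha. For post-emergence treatments, plants have 2–3 leaves and the spray carries 0.25% v/v non-ionic surfactant.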

[2] = system: barnyardgrass (Echinochloa crus-galli, ECHCG); assay: as above; settings: Echinochloa crus-galli, pre-emergence, 336 h, pre-emerge, phytotoxicity rating 0-100 at 14 days after application, read-out: Pre-emerge Herbicidal Activity ECHCG; for pest or weed control at 63 g/ha: rate 63 g ai/ha; for pest or weed control at 250 g/ha: rate 250 g ai/ha
How it was run: (§1)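 Applied at 15–1000 g ai/ha from acetone in 187 l/ha spray volume. Post-emergence applications included 0.25% v/v non-ionic surfactant and reached plants sown 8–21 days before. Pre-emergence applications were incorporated by surface watering. Efficacy or crop damage was rated on a 0–100 scale after 14 days.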

[3] = system: green foxtail (Setaria viridis, SETVI); assay: as above; settings: Setaria viridis, pre-emergence, 336 h, pre-emerge, phytotoxicity rating 0-100 at 14 days after application, read-out: Pre-emerge Herbicidal Activity SETVI; for pest or weed control at 63 g/ha: rate 63 g ai/ha; for pest or weed control at 250 g/ha: rate 250 g ai/ha
How it was run: as §1

[4] = system: ivyleaf morningglory (Ipomoea hederacea, IPOHE); assay: as above; settings: Ipomoea, pre-emergence, 336 h, pre-emerge, phytotoxicity rating 0-100 at 14 days after application, read-out: Pre-emerge Herbicidal Activity IPOHE; for pest or weed control at 63 g/ha: rate 63 g ai/ha; for pest or weed control at 250 g/ha: rate 250 g ai/ha
How it was run: as §1

[5] = system: johnsongrass (Sorghum halepense, SORHA); assay: as above; settings: Sorghum halepense, pre-emergence, 336 h, pre-emerge, phytotoxicity rating 0-100 at 14 days after application, read-out: Pre-emerge Herbicidal Activity SORHA; for pest or weed control at 63 g/ha: rate 63 g ai/ha; for pest or weed control at 250 g/ha: rate 250 g ai/ha
How it was run: as §1

[6] = system: lambsquarters (Chenopodium album, CHEAL); assay: as above; settings: Chenopodium album, pre-emergence, 336 h, pre-emerge, phytotoxicity rating 0-100 at 14 days after application, read-out: Pre-emerge Herbicidal Activity CHEAL; for pest or weed control at 63 g/ha: rate 63 g ai/ha; for pest or weed control at 250 g/ha: rate 250 g ai/ha
How it was run: as §1

[7] = system: large crabgrass (Digitaria sanguinalis, DIGSA); assay: as above; settings: Digitaria sanguinalis, pre-emergence, 336 h, pre-emerge, phytotoxicity rating 0-100 at 14 days after application, read-out: Pre-emerge Herbicidal Activity DIGSA; for pest or weed control at 63 g/ha: rate 63 g ai/ha; for pest or weed control at 250 g/ha: rate 250 g ai/ha
How it was run: as §1

[8] = system: sicklepod (Cassia obtusifolia, CASOB); assay: as above; settings: Senna obtusifolia, pre-emergence, 336 h, pre-emerge, phytotoxicity rating 0-100 at 14 days after application, read-out: Pre-emerge Herbicidal Activity CASOB; for pest or weed control at 63 g/ha: rate 63 g ai/ha; for pest or weed control at 250 g/ha: rate 250 g ai/ha
How it was run: as §1

[9] = system: velvetleaf (Abutilon theophrasti, ABUTH); assay: as above; settings: Abutilon theophrasti, pre-emergence, 336 h, pre-emerge, phytotoxicity rating 0-100 at 14 days after application, read-out: Pre-emerge Herbicidal Activity ABUTH; for pest or weed control at 63 g/ha: rate 63 g ai/ha; for pest or weed control at 250 g/ha: rate 250 g ai/ha
How it was run: as §1

[10] = system: green foxtail (Setaria viridis, SETVI); assay: Post-emerge test, greenhouse herbicide activity screening; settings: Setaria viridis, post-emergence, 336 h, post-emerge, phytotoxicity rating 0-100 at 14 days after application, read-out: Post-emerge Herbicidal Activity SETVI; for pest or weed control at 63 g/ha: 63 g ai/ha; for pest or weed control at 250 g/ha: 250 g ai/ha
How it was run: (§2)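 Compounds in acetone were track-sprayed at 15-1000 g ai/ha (187 l/ha) on sandy loam pots: pre-emerge one day after seeding, post-emerge at 2-3 leaf stage with 0.25% v/v non-ionic surfactant. Phytotoxicity was rated 14 days later on a 0 (no damage) to 100 (complete death) scale.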

[11] = system: johnsongrass (Sorghum halepense, SORHA); assay: as above; settings: Sorghum halepense, post-emergence, 336 h, post-emerge, phytotoxicity rating 0-100 at 14 days after application, read-out: Post-emerge Herbicidal Activity SORHA; for pest or weed control at 63 g/ha: 63 g ai/ha; for pest or weed control at 250 g/ha: 250 g ai/ha
How it was run: as §2

[12] = system: lambsquarters (Chenopodium album, CHEAL); assay: as above; settings: Chenopodium album, post-emergence, 336 h, post-emerge, phytotoxicity rating 0-100 at 14 days after application, read-out: Post-emerge Herbicidal Activity CHEAL; for pest or weed control at 63 g/ha: 63 g ai/ha; for pest or weed control at 250 g/ha: 250 g ai/ha
How it was run: as §2

[13] = system: large crabgrass (Digitaria sanguinalis, DIGSA); assay: as above; settings: Digitaria sanguinalis, post-emergence, 336 h, post-emerge, phytotoxicity rating 0-100 at 14 days after application, read-out: Post-emerge Herbicidal Activity DIGSA; for pest or weed control at 63 g/ha: 63 g ai/ha; for pest or weed control at 250 g/ha: 250 g ai/ha
How it was run: as §2

[14] = system: sicklepod (Cassia obtusifolia, CASOB); assay: as above; settings: Senna obtusifolia, post-emergence, 336 h, post-emerge, phytotoxicity rating 0-100 at 14 days after application, read-out: Post-emerge Herbicidal Activity CASOB; for pest or weed control at 63 g/ha: 63 g ai/ha; for pest or weed control at 250 g/ha: 250 g ai/ha
How it was run: as §2

Nc1c(O)c(Cl)cc(F)c1N1C(=O)C2=C(CCCC2)C1=O [Compound 8-2, 2-amino-6-chloro-4-fluoro-3-tetrahydrophthalimido)phenol]
pest or weed control at 63 g/ha [1]: 90%
pest or weed control at 250 g/ha [1]: 100%
pest or weed control at 63 g/ha [2]: 0%
pest or weed control at 250 g/ha [2]: 40%
pest or weed control at 63 g/ha [3]: 20%
pest or weed control at 250 g/ha [3]: 100%
pest or weed control at 63 g/ha [4]: 0%
pest or weed control at 250 g/ha [4]: 0%
pest or weed control at 63 g/ha [5]: 0%
pest or weed control at 250 g/ha [5]: 20%
pest or weed control at 63 g/ha [6]: 80%
pest or weed control at 250 g/ha [6]: 100%
pest or weed control at 63 g/ha [7]: 0%
pest or weed control at 250 g/ha [7]: 70%
pest or weed control at 63 g/ha [8]: 0%
pest or weed control at 250 g/ha [8]: 90%
pest or weed control at 63 g/ha [9]: 80%
pest or weed control at 250 g/ha [9]: 100%
pest or weed control at 63 g/ha [10]: 40%
pest or weed control at 250 g/ha [10]: 60%
pest or weed control at 63 g/ha [11]: 10%
pest or weed control at 250 g/ha [11]: 0%
pest or weed control at 63 g/ha [12]: 40%
pest or weed control at 250 g/ha [12]: 80%
pest or weed control at 63 g/ha [13]: 30%
pest or weed control at 250 g/ha [13]: 30%
pest or weed control at 63 g/ha [14]: 50%
pest or weed control at 250 g/ha [14]: 30%

COc1c(Cl)cc(F)c(-c2nn(C)c(C(F)(F)F)c2Cl)c1NC(=O)C=Cc1ccccc1 [Compound 7-15]
pest or weed control at 63 g/ha [1]: 80%
pest or weed control at 250 g/ha [1]: 100%
pest or weed control at 63 g/ha [2]: 0%
pest or weed control at 250 g/ha [2]: 10%
pest or weed control at 63 g/ha [3]: 0%
pest or weed control at 250 g/ha [3]: 60%
pest or weed control at 63 g/ha [4]: 0%
pest or weed control at 250 g/ha [4]: 50%
pest or weed control at 63 g/ha [5]: 0%
pest or weed control at 250 g/ha [5]: 20%
pest or weed control at 63 g/ha [6]: 100%
pest or weed control at 250 g/ha [6]: 100%
pest or weed control at 63 g/ha [7]: 0%
pest or weed control at 250 g/ha [7]: 60%
pest or weed control at 63 g/ha [8]: 0%
pest or weed control at 250 g/ha [8]: 10%
pest or weed control at 63 g/ha [9]: 40%
pest or weed control at 250 g/ha [9]: 90%
pest or weed control at 63 g/ha [10]: 10%
pest or weed control at 250 g/ha [10]: 10%
pest or weed control at 63 g/ha [11]: 0%
pest or weed control at 250 g/ha [11]: 0%
pest or weed control at 63 g/ha [12]: 100%
pest or weed control at 250 g/ha [12]: 100%
pest or weed control at 63 g/ha [13]: 0%
pest or weed control at 250 g/ha [13]: 0%
pest or weed control at 63 g/ha [14]: 40%
pest or weed control at 250 g/ha [14]: 80%

Cc1nn(-c2c(Cl)cc(Cl)c(N)c2N)c(=O)n1C(F)F [Compound 6-20]
pest or weed control at 63 g/ha [1]: 10%
pest or weed control at 250 g/ha [1]: 0%
pest or weed control at 63 g/ha [2]: 0%
pest or weed control at 250 g/ha [2]: 0%
pest or weed control at 63 g/ha [3]: 0%
pest or weed control at 250 g/ha [3]: 0%
pest or weed control at 63 g/ha [4]: 0%
pest or weed control at 250 g/ha [4]: 0%
pest or weed control at 63 g/ha [5]: 0%
pest or weed control at 250 g/ha [5]: 0%
pest or weed control at 63 g/ha [6]: 50%
pest or weed control at 250 g/ha [6]: 30%
pest or weed control at 63 g/ha [7]: 0%
pest or weed control at 250 g/ha [7]: 0%
pest or weed control at 63 g/ha [8]: 0%
pest or weed control at 250 g/ha [8]: 0%
pest or weed control at 63 g/ha [9]: 0%
pest or weed control at 250 g/ha [9]: 0%
pest or weed control at 63 g/ha [10]: 0%
pest or weed control at 250 g/ha [10]: 0%
pest or weed control at 63 g/ha [11]: 0%
pest or weed control at 250 g/ha [11]: 0%
pest or weed control at 63 g/ha [12]: 0%
pest or weed control at 250 g/ha [12]: 60%
pest or weed control at 63 g/ha [13]: 0%
pest or weed control at 250 g/ha [13]: 0%
pest or weed control at 63 g/ha [14]: 0%
pest or weed control at 250 g/ha [14]: 0%

Cc1nn(-c2c(N)cc(Cl)cc2F)c(=O)n1C(F)F [Compound 6-22]
pest or weed control at 63 g/ha [1]: 30%
pest or weed control at 250 g/ha [1]: 100%
pest or weed control at 63 g/ha [2]: 0%
pest or weed control at 250 g/ha [2]: 0%
pest or weed control at 63 g/ha [3]: 10%
pest or weed control at 250 g/ha [3]: 50%
pest or weed control at 63 g/ha [4]: 0%
pest or weed control at 250 g/ha [4]: 0%
pest or weed control at 63 g/ha [5]: 0%
pest or weed control at 250 g/ha [5]: 10%
pest or weed control at 63 g/ha [6]: 40%
pest or weed control at 250 g/ha [6]: 100%
pest or weed control at 63 g/ha [7]: 0%
pest or weed control at 250 g/ha [7]: 20%
pest or weed control at 63 g/ha [8]: 0%
pest or weed control at 250 g/ha [8]: 60%
pest or weed control at 63 g/ha [9]: 20%
pest or weed control at 250 g/ha [9]: 100%
pest or weed control at 63 g/ha [10]: 0%
pest or weed control at 250 g/ha [10]: 0%
pest or weed control at 63 g/ha [11]: 0%
pest or weed control at 250 g/ha [11]: 0%
pest or weed control at 63 g/ha [12]: 50%
pest or weed control at 250 g/ha [12]: 70%
pest or weed control at 63 g/ha [13]: 0%
pest or weed control at 250 g/ha [13]: 0%
pest or weed control at 63 g/ha [14]: 0%
pest or weed control at 250 g/ha [14]: 0%
